Patent publication US8598145B2, “Mitochondrially delivered anti-cancer compounds” (priority 2008, dated 2013)
Values belong to the molecule of their own block, whether it stands above or below them.

Tests used:
[1] = test system: Jurkat, HBT11, MCF7, MCF7-C3; settings: Table II; cited from earlier work
[2] = test system: MCF7; settings: Arya et al; cited from earlier work
[3] = test system: Jurkat, U937, Meso-2; settings: cited from earlier work
[4] = test system: LNCaP, PC-3; settings: Shiau et al, 2006; cited from earlier work
[5] = molecular target: T1, α-tocopherol transfer protein (α-TTP) (Rattus norvegicus, UniProt P41034); settings: Hosomi et al 1997; cited from earlier work
T1 sequence (P41034 1-278): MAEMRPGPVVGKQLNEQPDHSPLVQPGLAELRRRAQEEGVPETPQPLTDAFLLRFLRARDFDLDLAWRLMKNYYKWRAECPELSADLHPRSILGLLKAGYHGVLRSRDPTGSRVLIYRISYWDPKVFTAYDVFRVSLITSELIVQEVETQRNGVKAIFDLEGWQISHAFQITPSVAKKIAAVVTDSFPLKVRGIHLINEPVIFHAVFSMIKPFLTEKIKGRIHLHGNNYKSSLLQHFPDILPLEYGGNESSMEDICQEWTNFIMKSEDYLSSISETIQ

[6] = test system: Jurkat; experiment: MTT viability assay (IC50); format: cell-based, human
Description: (§1) The following cell lines used in this study were obtained from ATCC, unless specified otherwise: Human T lymphoma cells Jurkat, human mesothelioma cells Meso-I, MM-BI, Ist-Mes, Ist-Mes-2 (Pass, H. I. et al. Characteristics of nine newly derived mesothelioma cell lines. Ann. Thorac. Surg. 59, 835-844 (1995)), human breast cancer cells MCF-7 (erbB2-low) and MDA-MB-453 (erbB2-high), human colorectal cells HCT-116, human hepatocarcinoma cells Huh-7, mouse mesothelioma cells AE17 (Jackaman, C. et al. IL-2 intratumoral immunotherapy enhances CD8+ T cells that mediate destruction of tumor cells and tumor-associated vasculature: a novel mechanism for IL-2. J. Immunol. 171, […] (2003), human non-malignant mesothelial cells Met-5A, […] (Claycomb, W. C. et al. HL-1 cells: a cardiac muscle cell line that contracts and retains phenotypic characteristics of the adult cardiomyocyte. Proc. Natl. Acad. Sci. USA 95, 2979-2984 […]) and H9c2, and the human endothelial-like cells EAhy926 (Edgell, C. J., McDonald, C. C. & Graham, J. B. Permanent cell line expressing human factor VIII-related antigen established by hybridization. Proc. Natl. Acad. Sci. USA 80, 3734-3737 (1983)). Jurkat cells were grown in the RPMI medium while DMEM was used for other malignant cell lines and for Met-5A cells, supplemented with 10% FCS and antibiotics. HL-1 cells, maintained in fibronectin/gelatine-coated dishes, were grown in the Claycomb medium supplemented with noradrenalin (Claycomb, W. C. et al. HL-1 cells: a cardiac muscle cell line that contracts and retains phenotypic characteristics of the adult cardiomyocyte. Proc. Natl. Acad. Sci. USA 95, 2979-2984 […]), EAhy926 cells were grown in complete DMEM supplemented with HAT (Edgell, C. J., McDonald, C. C. & Graham, J. B. Permanent cell line expressing human factor VIII-related antigen established by hybridization. Proc. Natl. Acad. Sci. USA 80, 3734-3737 (1983)). Cells deficient in mtDNA (ρ^0 phenotype) were prepared as detailed in Weber, T. et al., (Mitochondria play a central role in apoptosis induced by α-tocopheryl succinate, an agent with anticancer activity. Comparison with receptor-mediated pro-apoptotic signaling. Biochemistry 42, 4277-4291 (2003)). Acquisition of the ρ^0 phenotype was confirmed by lack of expression by the cells of the mtDNA-encoded cytochrome c oxidase subunit II (COXII not shown). Chinese hamster lung fibroblasts deficient in complex I (B10 cells) (See, B. B. et al. Molecular remedy of complex I defects: rotenone-insensitive internal NADH-quinone oxidoreductase of Saccharomyces cerevisiae mitochondria restores the NADH oxidase activity of complex I-deficient mammalian cells. Proc. Natl. Acad. Sci. USA 95, 9167-9171 (1998)) and complex II (CybL^−/−; B9 cells) (Oostveen, F. G., Au, H. C., Meijer, P. J. & Scheffler, I. E. A Chinese hamster mutant cell line with a defect in the integral membrane protein CII-3 of complex II of the mitochondrial electron transport chain. J. Biol. Chem. 270: 26104-26108 (1995)) as well as the parental cells (B1 cells) (Oostveen, F. G., Au, H. C., Meijer, P. J. & Scheffler, I. E. A Chinese hamster mutant cell line with a defect in the integral membrane protein CII-3 of complex II of the mitochondrial electron transport chain. J. Biol. Chem. 270: 26104-26108 (1995)) were grown in DMEM with 10% FCS, antibiotics, 10 mg/ml glucose and non-essential aminoacids.
(§2) Toxicity of α-TOS, VE11S (“VES”), MitoVE3S, MitoVE5S, MitoVE7S, MitoVE9S, MitoVE11S (“MitoVES”), MitoVE11AE (“MitoVEAE”), MitoVE11F (“MitoVEF”), MitoVE11M (“MitoVEM”), and VES4TPP towards cancer cells was assessed on the basis of IC50, as detailed in Turanek, J., et al. ((2008). Liposomal formulation of vitamin E analogs as an efficient and selective anti-cancer treatment. Clin. Cancer Res. (submitted)). […]

[7] = test system: B16(F10); settings: cited from earlier work
[8] = test system: B16-F1/ nude mice; settings: Kogure et al 2005; cited from earlier work
[9] = test system: neoplastIc + SA mammary epithelial cells; settings: cited from earlier work
[10] = test system: Ras-transformed B9 cells with a defective Complex II; experiment: Apoptosis in Ras-transformed B1 and B9 cells (FIG. 4C); format: cell-based, Chinese hamster
Description: 4C—After 24 h of treatment with Complex II targeting drugs TTFA or MitoVES, Ras transformed B1 and B9 cells were assessed for apoptosis using the Annexin V binding method.
as §1, with “Chinese hamster lung fibroblasts deficient in complex I (B10 cells) (See, B. B. et al. Molecular remedy of complex I defects: rotenone-insensitive internal NADH-quinone oxidoreductase of Saccharomyces cerevisiae mitochondria restores the NADH oxidase activity of complex I-deficient mammalian cells. Proc. Natl. Acad. Sci. USA 95, 9167-9171 (1998)) and complex II (CybL^−/−; B9 cells) (Oostveen, F. G., Au, H. C., Meijer, P. J. & Scheffler, I. E. A Chinese hamster mutant cell line with a defect in the integral membrane protein CII-3 of complex II of the mitochondrial electron transport chain. J. Biol. Chem. 270: 26104-26108 (1995)) as well as the parental cells (B1 cells) (Oostveen, F. G., Au, H. C., Meijer, P. J. & Scheffler, I. E. A Chinese hamster mutant cell line with a defect in the integral membrane protein CII-3 of complex II of the mitochondrial electron transport chain. J. Biol. Chem. 270: 26104-26108 (1995)) were grown in DMEM with 10% FCS, antibiotics, 10 mg/ml glucose and non-essential aminoacids.” left out

[11] = test system: Jurkat, HBT1, MCF7, MCF7-C3, U937, Meso-2; settings: cited from earlier work
[12] = test system: MDA-MB-435, MCF7; settings: cited from earlier work
[13] = test system: Meso-2; experiment: MTT viability assay (IC50); format: cell-based, human; settings: Meso-2, ~60% confluency
Description: as §1, §2

[14] = test system: MCF-7; experiment: MTT viability assay (IC50); format: cell-based, human; settings: MCF-7, ~60% confluency
Description: as §1, §2

[15] = test system: H9c2; experiment: MTT viability assay (IC50); format: cell-based, rat; settings: H9c2, ~60% confluency
Description: as §1, §2

[16] = test system: HL-1; experiment: MTT viability assay (IC50); format: cell-based, rat; settings: HL-1, ~60% confluency
Description: as §1, §2

[17] = test system: NB4, HT93; settings: cited from earlier work
[18] = Table VI: Jurkat 0.5 × 10^6 per ml, analogs added as EtOH solution, MTT

Structure (SMILES): Cc1c(C)c2c(c(C)c1OC(=O)C=CC(=O)O)CCC(C)(CCCC(C)CCCC(C)CCCC(C)C)O2 (stereo not shown) [Nr 3]
- IC50 [1]: 22 µM

Structure (SMILES): CCCCC(=O)OCC1(C)CCc2c(C)c(OC(=O)C(N)CCCCN)c(C)c(C)c2O1 (stereo not shown) [Nr 49]
- IC50 [2]: 15 µM

Structure (SMILES): COC(=O)CCC(=O)Nc1c(C)c(C)c2c(c1C)CCC(C)(CCCC(C)CCCC(C)CCCC(C)C)O2 (stereo not shown) [Nr 14]
- IC50 [3]: > 100 µM

Structure (SMILES): Cc1cc(OC(=O)C=CC(=O)O)cc2c1OC(C)(CCCC(C)CCCC(C)CCCC(C)C)CC2 (stereo not shown) [Nr 36]
- IC50 [1]: 49 µM

Structure (SMILES): Cc1c(C)c2c(c(C)c1OCCC(=O)O)CCC(C)(CCCC(C)CCCC(C)C)O2 (stereo not shown) [Nr 44]
- IC50 [4]: 4 to 8 µM

- IC50 [6, 18]: > 100 µM
Structure (SMILES): Cc1c(C)c2c(c(C)c1O)CC[C@@](C)(CCC[C@H](C)CCC[C@H](C)CCCC(C)C)O2 [α-TOH, α-tocopherol, reference compound]
- relative affinities for α-TTP [5]: 100%

Structure (SMILES): Cc1cc(O)cc2c1O[C@](C)(CCC[C@H](C)CCC[C@H](C)CCCC(C)C)CC2 [δ-tocopherol]
- relative affinities for α-TTP [5]: 2%

Structure (SMILES): Cc1cc(NC(=O)C=CC(=O)O)cc2c1OC(C)(CCCC(C)CCCC(C)CCCC(C)C)CC2 (stereo not shown) [Nr 38]
- IC50 [3]: 9 µM

Structure (SMILES): Cc1c(C)c2c(c(C)c1OC(=O)CCC(=O)O)CCC(C)(C)O2 [Nr 46]
- IC50 [4]: > 100 µM

Structure (SMILES): Cc1c(O)cc2c(c1C)O[C@](C)(CCC[C@H](C)CCC[C@H](C)CCCC(C)C)CC2 [γ-tocopherol]
- relative affinities for α-TTP [5]: 9%

Structure (SMILES): Cc1c(C)c2c(c(C)c1OC(=O)C(N)CCCCN)CCC(C)(CCCC(C)CCCC(C)CCCC(C)C)O2 (stereo not shown) [Nr 16]
- IC50 [2]: 12 µM

Structure (SMILES): CC(C)=CCCC(C)=CCCC(C)=CCCC1(C)CCc2cc(O)ccc2O1 (stereo not shown) [Nr 60]
- IC50 [7]: 0.9 µM

Structure (SMILES): Cc1c(C)c2c(c(C)c1OC(=O)CCC(=O)O)CCC(C)(CCCC(C)CCCC(C)C)O2 (stereo not shown) [Nr 43]
- IC50 [4]: 4 to 9 µM

Structure (SMILES): Cc1c(C)c2c(c(C)c1OC(=O)CC(=O)O)CCC(C)(CCCC(C)CCCC(C)CCCC(C)C)O2 (stereo not shown) [Nr 11]
- cytotoxicity in mice inoculated with B16-F1 melanoma cells [8]: non-selective cytotoxicity

Structure (SMILES): CC(C)=CCCC(C)=CCCC(C)=CCCC1(C)CCc2cc(O)c(C)c(C)c2O1 (stereo not shown) [Nr 56]
- IC50 [7]: 20 µM
- IC50 [9]: 4 µM

Structure (SMILES): Cc1c(C)c2c(c(C)c1OC(=O)C(N)CCCCN)CCC(C)(CO)O2 (stereo not shown) [Nr 47]
- IC50 [2]: 194 µM

Structure (SMILES): CC(C)=CCCC(C)=CCCC(C)=CCCC1(C)CCc2cc(O)cc(C)c2O1 (stereo not shown) [Nr 59]
- IC50 [7]: 10 µM

Structure (SMILES): O=C(CC(=O)C(F)(F)F)c1cccs1 [TTFA, reference compound]
- sensitivity to apoptosis of Ras-transformed B9 cells compared to Ras-transformed B1 cells ([10]; 24 h treatment, Annexin V binding): much less sensitive
- sensitivity after reconstitution of Complex II function (human SDHC) in Ras-transformed B9 cells ([10]; B9 cells transfected to express human SDHC): restored the sensitivity

Structure (SMILES): Cc1c(C)c2c(c(C)c1OC(=O)C(=O)O)CCC(C)(CCCC(C)CCCC(C)CCCC(C)C)O2 (stereo not shown) [Nr 10]
- cytotoxicity in mice inoculated with B16-F1 melanoma cells [8]: non-selective cytotoxicity

Structure (SMILES): Cc1cc(OC(=O)CCC(=O)O)c(C)c2c1OC(C)(CCCC(C)CCCC(C)CCCC(C)C)CC2 (stereo not shown) [Nr 32]
- IC50, printed relative to α-TOS [11]: 50% of α-TOS

Structure (SMILES): Cc1c(C)c2c(c(C)c1OCC(=O)O)CCC(C)(CCCC(C)CCCC(C)CCCC(C)C)O2 (stereo not shown) [Nr 21]
- EC50 [12]: 15 to 20 µg/mL

Structure (SMILES): Cc1c(C)c2c(c(C)c1NC(=O)CCC(=O)O)CCC(C)(CCCC(C)CCCC(C)CCCC(C)C)O2 (stereo not shown) [Nr 12]
- IC50 [3]: 13 µM

Structure (SMILES): Cc1cc(O)c(C)c2c1O[C@](C)(CCC[C@H](C)CCC[C@H](C)CCCC(C)C)CC2 [β-tocopherol]
- relative affinities for α-TTP [5]: 38%

Structure (SMILES): Cc1cc(NC(=O)CCC(=O)O)cc2c1OC(C)(CCCC(C)CCCC(C)CCCC(C)C)CC2 (stereo not shown) [Nr 37]
- IC50 [3]: 20 µM

- IC50 ([6]; Jurkat, treated at 0.5 × 10^6 per ml, MTT viability curves): 21 ± 5 µM
- IC50 [6, 18]: 21 ± 5 µM
- IC50 [14]: 19 ± 3 µM
Structure (SMILES): Cc1c(C)c2c(c(C)c1OC(=O)CCC(=O)OCCCC[P+](c1ccccc1)(c1ccccc1)c1ccccc1)CCC(C)(CCCC(C)CCCC(C)CCCC(C)C)O2 (stereo not shown) [VES4TPP]
- IC50 [13]: 28 ± 6 µM
- IC50 [15]: > 100 µM
- IC50 [16]: > 100 µM

Structure (SMILES): CCCCCOCC1(C)CCc2c(C)c(OC(=O)C(N)CCCCN)c(C)c(C)c2O1 (stereo not shown) [Nr 48]
- IC50 [2]: 22 µM

Structure (SMILES): CC1=C(/C=C/C(C)=C/C=C/C(C)=C/C(=O)Oc2c(C)c(C)c3c(c2C)CCC(C)(CCCC(C)CCCC(C)CCCC(C)C)O3)C(C)(C)CCC1 (stereo not shown) [Nr 28]
- IC50 [17]: 0.1 to 1 µM

Structure (SMILES): Cc1c(C)c2c(c(C)c1NC(=O)C=CC(=O)O)CCC(C)(CCCC(C)CCCC(C)CCCC(C)C)O2 (stereo not shown) [Nr 13]
- IC50 [3]: 2 µM

Structure (SMILES): Cc1cc(OC(=O)CCC(=O)O)cc2c1OC(C)(CCCC(C)CCCC(C)CCCC(C)C)CC2 (stereo not shown) [Nr 35]
- IC50 [1]: 66 µM
